Source: patent US9447081B2, “Substituted pyrimidines as pharmaceuticals and insecticides” (SHENYANG SINOCHEM AGROCHEMICALS R&D CO., LTD., priority 2012, dated 2016)

Experiments:
rice blast = test: microbe, parasite or virus in culture; format: cell-based; details: for inhibition at 25 µg/mL: Pyricularia oryzae, 24 h, read-out: inhibition rate against rice blast; for inhibition rate against rice blast: in vitro, 24 hours
cucumber downy mildew = test: Protectant activity in vivo (whole plant), cucumber downy mildew; details: for pest or weed control at 25 µg/mL / pest or weed control at 50 µg/mL / pest or weed control at 100 µg/mL / pest or weed control at 400 µg/mL: Cucumis sativus, 168 h, read-out: protectant activity against cucumber downy mildew
Experimental: (§1) The method is as followed: The whole plant is used in this test. The compound is dissolved in a proper solvent to get mother solution. The proper solvent is selected from acetone, methanol, DMF and so on according to their dissolving capability to the sample. […] The testing solution is sprayed to the host plant by a special plant sprayer. The plant is inoculated with fungus after 24 hours. According to the infecting characteristic of fungus, the plant is stored in a humidity chamber and then transferred into greenhouse after infection is finished. And the other plants are placed in greenhouse directly. The activity of compound is obtained by eyeballing after 7 days in common.

corn rust = test: Protectant activity in vivo (whole plant), corn rust; details: for pest or weed control at 25 µg/mL / pest or weed control at 100 µg/mL / pest or weed control at 400 µg/mL / pest or weed control at 6.25 µg/mL: Zea mays, 168 h, read-out: protectant activity against corn rust; for pest or weed control at 6.25 µg/mL: 6.25 mg/L
Experimental: as §1

wheat powdery mildew = test: Protectant activity in vivo (whole plant), wheat powdery mildew
Experimental: as §1

armyworm = test: Insecticidal activity against armyworm (airbrush spray); format: in vivo; details: second instar larvae, mortality after 72 h
Experimental: (§2) Compounds were dissolved in mixed solvent (acetone:methanol=1:1), and diluted to required concentration with water containing 0.1% of tween 80.
(§3) Diamond back moth, armyworm, Green Peach Aphid and carmine spider mite were used as targets and the method of spraying by airbrush was used for determination of insecticidal biassays.
(§4) The method of spraying by airbrush: The corn leaves were made into plates of 2 cm diameter by use of punch. A test solution (0.5 ml) was sprayed by airbrush at the pressure of 0.7 kg/cm^2 to both sides of every plate. 10 Second instar larvae were put into the petri-dishes after the leaf disc air-dried and 3 replicates were set for each treatment. Then the insects were maintained in observation room (25° C., 60˜70% R.H.). Scores were conducted and mortalities were calculated after 72 h.

carmine spider mite = test: Acaricidal activity against carmine spider mite (airbrush spray); format: in vivo; details: 100 mg/L, adults, mortality after 72 hrs; for pest or weed control at 100 µg/mL: Tetranychus cinnabarinus
Experimental: as §2, §3
Method: Broadbean shoots with two true leaves in pot were taken, the healthy adults of carmine spider mite were inoculated to the leaves. The adults were counted and then sprayed with airbrush at the pressure of 0.7 kg/cm^2 and at dose of 0.5 ml. 3 replicates were set for each treatment. And then they were maintained in standard observation room. Scores were conducted and mortalities were calculated after 72 hrs.

[1] = tested on: Green peach aphids (Myzus Persicae Sulzer); test: Activity against green peach aphid (airbrush foliar spray); format: in vivo; details: death rate after 48 h; for pest or weed control at 10 µg/mL / pest or weed control at 100 µg/mL / pest or weed control at 600 µg/mL: Myzus persicae, foliar, 48 h; for pest or weed control at 10 µg/mL: read-out: Insecticidal activity against peach aphid; for pest or weed control at 100 µg/mL / pest or weed control at 600 µg/mL: read-out: Insecticidal activity against peach aphid (control)
Experimental: as §2, §3
Method: Filter papers were put in culture dishes (Diameter=6 cm), and water was dripped on filter papers for preserving moisture. Green peach aphids (Myzus Persicae Sulzer) were maintained on cabbage. Leaves (Diameter=3 cm) of approximately 15-30 aphids were put in the culture dishes. Bioactivity tests were used the method of Airbrush Foliar Spray, pressure=10 psi (0.7 kg/cm2), spray volume=0.5 mL. The studies were conducted at three constant temperatures 25±1 C. in incubator cabinets with 60±5% RH. Survey the survival aphids after 48 h and calculate the death rates.

diamond back moth = test: Insecticidal activity against diamond back moth (airbrush spray); format: in vivo; details: mortality after 72 h; for pest or weed control at 100 µg/mL: 100 mg/L; for pest or weed control at 100 µg/mL / pest or weed control at 600 µg/mL: read-out: control of the second instar larvae of diamond back moth
Experimental: as §2, §3
as §4, with “cabbage” for “corn”

cucumber gray mold = test: Fungicidal activity in vitro (96-well, High Through Put), cucumber gray mold; format: cell-based; details: 25 mg/L, 24 hours, read-out: inhibition rate against cucumber gray mold
[2] = Triticum aestivum, 168 h, 400 mg/L, read-out: protectant activity against wheat powdery mildew
[3] = Triticum aestivum, 168 h, 25 mg/L, read-out: protectant activity against wheat powdery mildew
[4] = Triticum aestivum, 168 h, 100 mg/L, read-out: protectant activity against wheat powdery mildew

Structure (SMILES) | inhibition at 25 µg/mL (rice blast) | pest or weed control at 100 µg/mL (cucumber downy mildew; 100 mg/L) | pest or weed control at 400 µg/mL (cucumber downy mildew; 400 mg/L) | pest or weed control at 100 µg/mL (corn rust; 100 mg/L) | pest or weed control at 400 µg/mL (corn rust; 400 mg/L) | pest or weed control at 400 µg/mL (wheat powdery mildew; [2]) | pest or weed control at 600 µg/mL (armyworm; 600 mg/L) | pest or weed control at 100 µg/mL (carmine spider mite) | pest or weed control at 10 µg/mL ([1]; 10 mg/L) | pest or weed control at 100 µg/mL ([1]; 100 mg/L) | pest or weed control at 600 µg/mL ([1]; 600 mg/L) | pest or weed control at 25 µg/mL (wheat powdery mildew; [3]) | pest or weed control at 100 µg/mL (wheat powdery mildew; [4]) | pest or weed control at 600 µg/mL (diamond back moth; 600 mg/L) | protectant activity against cucumber downy mildew (cucumber downy mildew; 25 mg/L) | protectant activity against cucumber downy mildew (cucumber downy mildew; 50 mg/L) | protectant activity against cucumber downy mildew (cucumber downy mildew; 100 mg/L) | protectant activity against cucumber downy mildew (cucumber downy mildew; 400 mg/L) | other results
CCc1ncnc(NCc2ccc3c(c2)OCO3)c1Cl [CK1] | 0% | 30% | 100% | 20% | 70% | 0% | 0% | 39% | 0% | 30% | 70% | – | – | – | – | – | – | – | pest or weed control at 25 µg/mL (cucumber downy mildew; 25 mg/L): 0%; pest or weed control at 50 µg/mL (cucumber downy mildew; 50 mg/L): 20%; pest or weed control at 25 µg/mL (corn rust; 25 mg/L): 0%
Cc1ncnc(NCc2ccc3c(c2)OCO3)c1Cl [CK2] | 0% | 60% | 100% | 0% | 75% | 60% | 14% | 0% | 0% | 12% | 20% | 40% | 60% | 20% | – | – | – | – | pest or weed control at 25 µg/mL (cucumber downy mildew; 25 mg/L): 0%; pest or weed control at 50 µg/mL (cucumber downy mildew; 50 mg/L): 40%; pest or weed control at 6.25 µg/mL (wheat powdery mildew; Triticum aestivum, 168 h, 6.25 mg/L, read-out: protectant activity against wheat powdery mildew): 0%; pest or weed control at 100 µg/mL (diamond back moth): 5%; pest or weed control at 100 µg/mL (armyworm; 100 mg/L): 0%
COc1ccc(CCNc2ncnc(C(F)F)c2Cl)cc1OC [CK5] | 0% | – | – | – | – | 100% | 0% | 0% | 8% | 35% | 100% | 0% | 20% | 40% | – | – | – | – | pest or weed control at 100 µg/mL (diamond back moth): 20%
COc1ccc(CNc2ncnc(C(F)F)c2Cl)cc1OC [CK6] | 0% | 0% | 80% | – | – | 85% | 0% | 0% | – | – | 0% | 0% | 25% | – | – | – | – | – | pest or weed control at 100 µg/mL (diamond back moth): 0%
COc1ccc(CCNc2ncnc(C(F)(F)F)c2Cl)cc1OC [CK7] | 0% | – | – | 0% | 70% | 80% | 0% | – | 0% | 37% | 66% | 0% | 30% | – | – | – | – | – | inhibition at 25 µg/mL (cucumber gray mold): 0%
FC(F)c1ncnc(NCc2ccc3c(c2)OCO3)c1Cl [CK9] | 0% | 0% | 50% | 25% | 80% | 70% | 0% | 0% | – | – | – | 0% | 10% | 0% | – | – | – | – | pest or weed control at 6.25 µg/mL (corn rust): 0%; pest or weed control at 25 µg/mL (corn rust; 25 mg/L): 0%
ClCc1ncnc(NCc2ccc3c(c2)OCO3)c1Cl [CK12] | – | 0% | 50% | 0% | 40% | 0% | 0% | 0% | 0% | 0% | 10% | – | – | 0% | – | – | – | – | –
Clc1ncnc(NCCc2ccc3c(c2)OCO3)c1Cl [Compound 2] | – | – | – | – | – | – | – | – | – | – | – | – | – | – | 100% | 100% | 100% | 100% | inhibition rate against rice blast (rice blast; 2.8 mg/L): 80%; inhibition rate against rice blast (rice blast; 8.3 mg/L): 100%; inhibition rate against rice blast (rice blast; 25 mg/L): 100%; protectant activity against wheat powdery mildew (wheat powdery mildew; 400 mg/L): 100%
FC(F)c1ncnc(NCCc2ccc3c(c2)OCO3)c1Cl [Compound 18] | – | – | – | – | – | – | – | – | – | – | – | – | – | – | 100% | 100% | 100% | 100% | inhibition rate against rice blast (rice blast; 0.9 mg/L): 80%; inhibition rate against rice blast (rice blast; 2.8 mg/L): 80%; inhibition rate against rice blast (rice blast; 8.3 mg/L): 100%; inhibition rate against rice blast (rice blast; 25 mg/L): 100%; protectant activity against cucumber downy mildew (cucumber downy mildew; 12.5 mg/L): 80%; protectant activity against corn rust (corn rust; 25 mg/L): 98%; protectant activity against corn rust (corn rust; 100 mg/L): 100%; protectant activity against corn rust (corn rust; 400 mg/L): 100%; protectant activity against wheat powdery mildew (wheat powdery mildew; 6.25 mg/L): 100%; protectant activity against wheat powdery mildew (wheat powdery mildew; 25 mg/L): 100%; protectant activity against wheat powdery mildew (wheat powdery mildew; 100 mg/L): 100%; protectant activity against wheat powdery mildew (wheat powdery mildew; 400 mg/L): 100%; control of the second instar larvae of diamond back moth (diamond back moth; 600 mg/L): 100%; control of the armyworm (armyworm; 600 mg/L): 100%; control against carmine spider mite (carmine spider mite): 90%; Insecticidal activity against peach aphid ([1]; 10 mg/L): 68%; Insecticidal activity against peach aphid (control) ([1]; 100 mg/L): 100%; Insecticidal activity against peach aphid (control) ([1]; 600 mg/L): 100%
FC(F)(F)c1ncnc(NCCc2ccc3c(c2)OCO3)c1Cl [Compound 20] | – | – | – | – | – | – | – | – | – | – | – | – | – | – | 20% | 100% | 100% | 100% | –
Cc1ncnc(NCCc2ccc3c(c2)OCO3)c1Cl [Compound 1451] | – | 0% | 100% | – | 80% | – | – | – | – | – | 100% | – | – | – | – | – | – | – | pest or weed control at 25 µg/mL (cucumber downy mildew; 25 mg/L): 0%; pest or weed control at 50 µg/mL (cucumber downy mildew; 50 mg/L): 0%
Cc1ncnc(NCCc2ccc3c(c2)OCO3)c1Cl [Compound 1452] | – | – | – | – | – | – | – | – | – | – | – | – | – | 80% | 0% | 0% | 0% | 95% | Insecticidal activity against peach aphid (control) ([1]; 600 mg/L): 90%
CCc1ncnc(NCCc2ccc3c(c2)OCO3)c1Cl [Compound 1465] | – | – | – | 95% | 100% | – | – | – | 0% | 70% | 100% | – | – | 100% | – | – | – | – | pest or weed control at 6.25 µg/mL (corn rust): 0%; pest or weed control at 25 µg/mL (corn rust; 25 mg/L): 50%
